In patent US20090075397A1, “Method for characterizing sugar-binding interactions of biomolecules” (Academia Sinica, priority 2007, published 2009):

T1: lectin UEA-1 (Ulex europaeus, UniProt P22972)
T1 construct: purchased EY Labs, Inc
T1 sequence (P22972 1-243): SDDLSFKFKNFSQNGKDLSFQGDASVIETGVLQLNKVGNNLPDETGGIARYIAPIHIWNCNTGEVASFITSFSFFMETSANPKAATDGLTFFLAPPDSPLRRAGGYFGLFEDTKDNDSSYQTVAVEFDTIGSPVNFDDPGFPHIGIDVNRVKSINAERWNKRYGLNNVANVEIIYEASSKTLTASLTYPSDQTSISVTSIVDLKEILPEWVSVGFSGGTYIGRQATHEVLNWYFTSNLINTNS

B1: PNA: lectin of Arachis hypogaea (protein, UniProt P02872 24-273, looked up)
Galactose-binding lectin: AETVSFNFNSFSEGNPAINFQGDVTVLSNGNIQLTNLNKVNSVGRVLYAMPVRIWSSATGNVASFLTSFSFEMKDIKDYDPADGIIFFIAPEDTQIPAGSIGGGTLGVSDTKGAGHFVGVEFDTYSNSEYNDPPTDHVGIDVNSVDSVKTVPWNSVSGAVVKVTVIYDSSTKTLSVAVTNDNGDITTIAQVVDLKAKLPERVKFGFSASGSLGGRQIHLIRSWSFTSTLITTTRRSIDNNEKKIMNMASA

Tests used:
[1] = tested on: recombinant hemagglutinin (HA) of H1N1 (A/Beijing/262/95); type: binding, influenza virus H1N1 (A/Beijing/262/95)
[2] = tested on: H1N1 virus (A/Beijing/262/95); type: binding, influenza virus H1N1 (A/Beijing/262/95); conditions: virus particles on acceptor beads, FIG. 5A
[3] = tested on: H3N2 virus (A/Panama/2007/99); type: binding, influenza virus H3N2 (A/Panama/2007/99); conditions: virus particles on acceptor beads, FIG. 5B
[4] = tested on: anti-Lex antibody; assay: ALPHAScreen sugar/protein binding assay, sugar on donor beads, antibody on acceptor beads; conditions: sugar linked to streptavidin donor beads
[5] = ALPHAScreen profiling of lectin binding specificities with biotinylated PAA-sugars; conditions: for Binding specificities: Table 2 (SI), examined lectins
[6] = target: T1, lectin UEA-1; assay: ALPHAScreen sugar/protein binding assay, sugar on donor beads, lectin on acceptor beads; conditions: sugar linked to streptavidin donor beads, UEA-1 on acceptor beads

Molecule | recognition by HA of H1N1 (A/Beijing/262/95) [1] | recognition by H1N1 virus (A/Beijing/262/95) [2] | also measured
CC(=O)N[C@H]1C(O)O[C@H](CO[C@]2(C(=O)O)C[C@H](O)[C@@H](NC(=O)CO)[C@H]([C@H](O)[C@H](O)CO)O2)[C@H](O)[C@@H]1O (stereo partly drawn) [Glycan No. 22, NeuGcα2-6GalNAc] | do not recognize | do not recognize | 
CC(=O)N[C@H]1[C@H]([C@H](O)[C@H](O)CO)O[C@@](O[C@H]2[C@@H](O)[C@@H](CO)OC(O)[C@@H]2NC(C)=O)(C(=O)O)C[C@@H]1O (stereo partly drawn) [Glycan No. 27, NeuAcα2-3GalNAc] | do not recognize | do not recognize | 
(NeuAcα2-8)5-6 [Glycan No. 52] | do not recognize | do not recognize | recognition by H3N2 virus (A/Panama/2007/99) [3]: accepted
Galβ1-4(Fucα1-3)GlcNAc (Le^x) [Glycan No. 33] |  |  | binding signal with anti-Lex antibody [4]: able to produce signals
SBA: lectin of Glycine max |  |  | Binding specificities [5]: GalNAc/Gal
α-L-Fuc [Glycan No. 6] |  |  | binding signal with lectin UEA-1 [6]: able to produce signals
B1 |  |  | Binding specificities [5]: Galβ1-3GalNAc; lectin sugar binding specificity ([5]; profiled with more than 50 biotinylated PAA-sugars, FIG. 2): binds to the Galb1-3GalNAc structure specifically
